Patent US20130090381A1, “PYRETHRINOID-TYPE ESTERS AS PESTICIDES” (SUMITOMO CHEMICAL COMPANY, LIMITED, priority 2010, published 2013)

Test system: German cockroaches
Assay: Knockdown test on German cockroaches by spraying an oil solution
Format: in vivo, German cockroach (Blattella germanica)
Conditions: 0.1% (w/v) oil solution, 1.5 ml sprayed; after 15 minutes; ten German cockroaches (5 of each male and female)
Description: The present invention compound (1) (0.1 parts) produced in the aforementioned Production Example was dissolved in 10 parts of isopropyl alcohol and the resulting solution was mixed with 89.9 parts of deodorized kerosine to prepare a 0.1% (w/v) oil solution.
Ten German cockroaches (5 of each male and female) were released in a test container (measuring 8.75 cm in diameter and 7.5 cm in height, bottom area covered with a 16 mesh wire netting) coated with butter at an inner wall, and the container was disposed on the bottom of a test chamber (bottom surface measuring 46 cm and 46 cm, 70 cm in height).
From 60 cm in height above the container, 1.5 ml of the oil solution of the present invention compound (1) was sprayed using a spray gun (spray pressure: 0.4 kg/cm^2). Thirty seconds after spraying, the container was removed from the test chamber. After a given time, the number of knockdowned cockroaches was counted and a knockdown rate was determined (repeated once). The knockdown rate was calculated by the following equation.
Knockdown rate (%)=(number of knockdowned cockroaches/number of test cockroaches)×100

**Q.** With `C#CCC1=C(C)[C@@H](OC(=O)[C@@H]2[C@@H](/C=C(C#N)/C=C/C)C2(C)C)CC1=O` [present invention compound (1), (S)-2-methyl-3-propynylcyclopent-2-en-4-on-1-yl=(1R)-trans-3-[(1Z,3E)-2-cyano-1,3-pentadienyl]-2,2-dimethylcyclopropane carboxylate] as the compound, how does the knockdown rate read?
**A.** The knockdown rate was 100%.
